The values below are quoted from earlier work in patent publication US11622958B2, “Bifunctional prodrugs” (GEORG-AUGUST-UNIVERSITÄT GÖTTINGEN STIFTUNG ÖFFENTLICHEN …, priority 2015, dated 2023).

Assay in data set [1]: not given
This is another data set of the same source.

pIC50: −log10 of the molar value.

As for `COc1c(O)c2c(c3cc(C(=O)N4CCc5c4c(O)c(OC)c4[nH]c(C(=O)N6CC7CC78C6=CC(=O)c6[nH]cc(C)c68)cc54)[nH]c13)CCN2C(N)=O` (centres unmarked) [CC-1065], the “hepatotoxicity in animal experiments” value was “delayed lethal hepatotoxicity”. In addition, the pIC50 in data set [1] is 10.70.
